Entries after “also recorded” stand apart in the source; their conditions may differ.

The subject of series [1] is human CD4+ naive and memory T cells. Briefly: CFSE dilution proliferation assay. It is filed as cell-based. To be noted: anti-CD3/CD28 microbeads; Bi2 10 μM, JPH203 10 μM, LβhL 400 mg/L. The procedure: (§1) To analyze T cell proliferative capacity, purified isolated human CD4+ T cells were labeled with 1 μM carboxyfluorescein succinimidyl ester (CFSE; Invitrogen, Waltham, MA, USA) and then stimulated with anti-CD3/CD28 antibody coated microbeads for 4 days at 37° C. Cells were stained with 7AAD (BD Biosciences) for 10 minutes to distinguish dead cells and the extent of CFSE dilution in 7AAD-cells was measured by BD LSRFortessa to analyze proliferative capacity. Antibodies listed in Table 2 and previously known BD LSRFortessa cell analyzers were used.

Series [2] concerns human CD4+ memory T cells. Briefly: Cholesterol analysis in cell lysates. To be noted: TCR stimulation 3 days; Bi2 10 μM, statin 10 μM. The series is classed as cell-based. The method, then: Total cholesterol amount in cultured cells was determined using a fluorometric Amplex™ Red Cholesterol Assay Kit (Thermo Fisher Scientific) according to the manufacturer's instructions.

For series [3], the system named is HIF-1α. Briefly: HIF-1α immunoblot in TCR-stimulated CD4+ memory T cells. It is filed as cell-based, human. The following applies: TCR-stimulated CD4+ memory T cells; Bi2 10 μM, CoCl2 100 μM, VH298 100 μM, MG132 5 μM. The procedure: (§2) Cells were cultured in radioimmunoprecipitation assay (RIPA) buffer (150 mM NaCl, 10 mM Na2HPO4, pH 7.2, 1% Nonidet P-40, 0.5% deoxycholate) containing phenylmethylsulfonyl fluoride (PMSF; Millipore Sigma, Burlington, MA), EDTA, protease and phosphatase inhibitor cocktail (Thermo Fisher Scientific) to extract total protein. Proteins were separated on 8-10% SDS-polyacrylamide gels and blotted onto polyvinylidene difluoride (PVDF) membranes (Bio-Rad, Hercules, CA) followed by 5% BSA in Tris buffered saline (TBS) with 0.1% Tween 20 and blocked for 1 hour. Membranes were cultured overnight with anti-human SLC7A5, anti-BCAT, anti-phospho-p70S6K, anti-p70S6K, anti-HIF-1α (all provided by Cell Signaling Technology, Danvers, MA) primary antibodies at 4° C., followed by culture with HRP-conjugated secondary antibodies for 1 hour at room temperature. Membranes were developed using SuperSignal West Femto Maximum Sensitivity Substrate or SuperSignal West Pico PLUS Chemiluminescent Substrate system (Thermo Fisher Scientific).

The subject of a further series is mTORC1. Briefly: Phospho-p70-S6K immunoblot (mTORC1 activity) in CD4+ memory T cells. It is filed as cell-based, human. To be noted: about 1-2 hours after stimulation. The procedure: as §2
Background: A western blot detects proteins with antibodies after separation by electrophoresis.

The next series concerns human CD4+ naive T cells. Briefly: Cell viability by 7-AAD staining. It is filed as cell-based. To be noted: Bi2 10 μM, 4 days. The method, then: as §1
The test system of series [4] is human CD4+ memory T cells. Briefly: scRNA-seq analysis of CD4+ memory T cells. The following applies: Bi2 10 μM. The series is classed as cell-based. The method, then: Freshly purified CD4^+ memory T-cells were stimulated for 72 hours with anti-CD3/CD28 coated microbeads in the absence or presence of Bi2. Samples from four different donors were multiplexed for 30 minutes at 4° C. with a hashtag oligo. Totalseq™ anti-human hashtag antibody (Biolegend, USA) was then used to perform in three experimental conditions (TCR-stimulated cells with Bi2, TCR-stimulated cells without Bi2, and cells without TCR stimulation). Tagged cells were pooled and loaded into a Chromium system (10× Genomics, Pleasanton, CA) and encapsulated into a single droplet targeting about 40,000 cells for each GEM (Gel Beads-in-emulsion). Chromium Single Cell 5′ Kit (10× Genomics) was used to generate scRNA-seq and TCR libraries according to the manufacturer's instructions. Demultiplexing and read alignment to the bound human genome was performed using Cell Ranger (v6.1.2).

The test system of series [5] is HIF-1α. Briefly: HIF-1α expression in TCR-stimulated mouse iLN cells. The series is classed as cell-based. The following applies: Bi2 10 μM, 24 hours. The method, then:
Blocking BCAT1 with Bi2 attenuates Th17 differentiation in mice. In FIG. 13A mRNA expression of slc7a5 and bcat1 in mouse inguinal LN (iLN) cells was analyzed by RT-qPCR at 24 hours after TCR stimulation with anti-CD3/CD28 antibody (n=5). In FIG. 13B protein expression of BCAT1 in mouse inguinal LN cells was analyzed at 24 hours after stimulation of TCR with anti-CD3/CD28 antibody (n=5). In FIGS. 13C to 13D, mouse CD4^+ naive T cells derived from iLN were differentiated under […] or Th1 polarization conditions for 5 days in the presence of Bi2 (10 μM). The amounts of IFN-γ (c) and IL-17A (d) in the culture supernatants of Th1 and Th17 cells (n=5) are shown. In FIG. 13E, the cells of mouse iLN were stimulated with anti CD3/CD28 antibody in the presence of Bi2 (10 μM) for 24 hours. Cell lysates were immunoblotted for HIF-1α (n=3 independent experiments). Cells treated with COCl2 served as a positive control for HIF-1α. […] FIG. 13F is a representative histogram plot of intracellular HIF-1α in cells of mouse iLN. Cells were stimulated with anti CD3/CD28 antibody in the presence of Bi2 (10 μM) for 24 hours. […] The significance was indicated as *=p<0.05, **=p<0.01, ***=p<0.001, according to Mann-Whitney U test (a, c, d, f) or the two-tailed non-pair t test (b, e)).

In the next series the test system is EAE mice. Briefly: Experimental autoimmune encephalomyelitis (EAE) model. It is filed as in vivo, mouse.
The test system of the next series is SKG mice. Briefly: Curdlan-induced arthritis in SKG mice. It is filed as in vivo, mouse. The method, then:
Eight-week-old female SKG mice used for induction of autoimmune arthritis [e.g., Rheumatoid Arthritis (RA)] were purchased from CLEA Japan (Tokyo, Japan). All mice were bred and managed in a sterile facility at Seoul National University School of Medicine. All experiments were approved by Seoul National University Institutional Animal Experimentation Ethics Committee (IACUC) (approval number: SNU-230825-2-2). At 8 weeks of age, 3 mg/mice curdlan (Wako, Japan) in 300 μl sterile PBS was injected intraperitoneally (i.p.) into mice. Ankle thickness was measured using calipers (Manostat, New York, NY). […] 0 point: no joint swelling; 0.1 point: single finger joint swelling; 0.5 point: minor swelling of wrist, ankle or tail base; 1.0 point: severe swelling of […], […] or tail base. Scores for all joints of each mouse were summed. Mice were euthanized at the end of the experiment and immune cells were extracted from inguinal lymph nodes (inguinal LNs) and joint cells.

[6] abbreviates: Bi2 10 mg/kg or LβhL 1 g/kg i.p.
The mark [7] stands for this setting: Bi2 10 mg/kg or LβhL 1 g/kg i.p., 10 mg/kg.
Where [8] appears, read: Bi2 i.p. twice a week for 3 weeks.

As for `O=C(NNS(=O)(=O)c1ccccc1C(F)(F)F)c1cc2cc(Cl)ccc2o1` [Bi2, BCATc inhibitor 2], the “proliferation (CFSE dilution)” value in [1] is “no effect on proliferation”. In addition, the intracellular cholesterol result in series [2] was “slight increase; also recorded: significantly increased”. In addition, in the series on HIF-1α [3], the HIF-1α protein expression entry is reported as “significantly inhibited”. In the series on mTORC1, the S6K phosphorylation result is listed as “inhibitory effect”. The “viability of activated CD4+ naive T cells” value in the series with human CD4+ naive T cells is “no significant effect”. In addition, in series [4] (72 hours TCR stimulation), the “HIF1A expression in activated Th17 cells” value is on record as “down-regulated” and the “activated Th17 cell population (clusters 8, 13, 15)” value is listed as “decreased”. Besides, the “T-cell activation, cytokine signaling and cytokine production pathways in activated Th17 subset” value in series [4] (pathway enrichment of DEGs) is given as “decrease”. Besides, in the series on HIF-1α [5], the “TCR-induced HIF-1α expression in mouse LN T cells” value is on record as “reduced”. In the series on EAE mice (Bi2 10 mg/kg i.p.), the “HIF-1α expression in SCMC (immunoblot)” value was “decreased”, the “absolute number of Th17 cells co-producing IFN-γ/IL-17A” value is reported as “significantly reduced”, the “absolute number of spinal cord mononuclear cells (SCMC)” value is reported as “significantly lower” and the “proportion of CD4+ T-cells in SCMC” value is listed as “significantly lower”. For the same molecule, the “relative proportion of Th17 cells co-producing IFN-γ/IL-17A” value with EAE mice (Bi2 10 mg/kg i.p.) was “did not change”. Besides, in the series with EAE mice (setting [6]), the “cell infiltration in spinal cord” value was “decrease” and the “nerve damage, spinal cord histology” value is listed as “decrease”. Also, in the series on EAE mice (setting [7]), the “CD4+ T-cells producing IL-17A in spinal cord infiltrates and draining LN” value is reported as “preferentially reduced”; the “HIF-1α expression in CD4+ T-cells of spinal cord (intracellular staining)” value is on record as “preferentially in CD4+ T-cells in SCMC but not in CD11b+F4/80+ macrophages; also recorded: reduced”. The “EAE clinical score / severity” value in the series with EAE mice (i.p. three times a week for 14 days, Bi2 10 mg/kg, LβhL 1 g/kg, 10 mg/kg) was “significantly lower; also recorded: alleviating the severity of disease”. Also, in the series on SKG mice (setting [8]), the “ifng, tgfb1 expression in synovial cells” value is reported as “significantly reduced” and the “ratio of Th17 cells in CD3+CD4+ T cells in inguinal lymph nodes” value was “significantly reduced”. Also, in the series on SKG mice (Bi2 i.p. twice a week for 3 weeks after curdlan), the arthritis score result was “significantly lower; also recorded: alleviates”.

(Values after patent US20260076937A1, “COMPOSITION FOR PREVENTING OR TREATING AUTOIMMUNE DISEASES COMPRISING A BCAT1 INHIBITOR” (Seoul National University R&DB Foundation, priority 2024, published 2026).)
